Earlier results, collected in US20040028740A1, “Steroid hormones as transfer agents” (priority 2000, published 2004).

[1] = daily doses of 200 mg and 300 mg

SMILES: CC(=O)[C@H]1CC[C@H]2[C@@H]3CCC4=CC(=O)CC[C@]4(C)[C@H]3CC[C@]12C [progesterone]
- effect on HDL-cholesterol levels [1]: does not affect
- effect on liver enzymes (ASAT, ALAT, AFOS) [1]: does not affect
- effect on sex-hormone binding-globulin (SHBG) synthesis [1]: does not affect
- effect on carbohydrate metabolism (orally administered): adversely affects neither
- effect on plasma lipids (orally administered): adversely affects neither
